Literature values in EP2229962A1, “Medical-surgical devices with antibacterial coating for human or animal implant and a method for their production” (Martelli, Laura, priority 2009, dated 2010).
Read-outs that look alike come from different tables or passages of the source.

For `[Ag+]` [Ag^+ ions, Ag^+], the “concentration of Ag^+ ions needed to perform an antibacterial action” value (bacteria; 1 ppb equivalent to 1 µg/l) is given as “at least 1 ppb”, the “concentration of Ag^+ ions needed to perform an antibacterial action” value (bacteria; in the case of certain bacteria) is given as ≥ 0.1 ppb and the “concentration above which there are cytotoxic effects to the surrounding tissue” value (surrounding tissue) is given as > 35 ppb.
